These results are taken from ChEMBL document CHEMBL6109053, “Aspirin-based PROTACs as COX-2 degraders for anti-inflammation” (Bioorg Med Chem, 2025).

A word on the IC50: it is the concentration that gives 50% inhibition.

Activity calls are given as the source filed them. The calls are words filed in the database; no cut-off is given here.

Series [1] concerns RAW264.7. The series can be described thus: Cytotoxicity against mouse RAW264.7 cells at 20 uM incubated for 24 hrs by CCK-8 assay. In kind it is toxicity, cell-based. Conditions: raw264.7, 24 h. (Formazan colour is commonly taken as a measure of viable cells.)
Series [2] concerns the target Protein cereblon/Prostaglandin G/H synthase 2 (Mus musculus) (UniProt Q05769+Q8C7D2). The series can be described thus: PROTAC activity at COX-2/CRBN in mouse RAW264.7 cells assessed as downregulation of COX2 expression measured after 24 hrs by Western blot analysis. In kind it is cell-based. Conditions: dose 5-20 µM. In general terms: In western blotting, separated proteins are transferred to a membrane and probed.

The test system of series [3] is RAW264.7. The series can be described thus: Anti-inflammatory activity in LPS-induced mouse RAW264.7 cells. In kind it is functional, cell-based.
Series [4] concerns the target T1, Prostaglandin G/H synthase 2 (Homo sapiens, UniProt P35354).
T1 sequence (P35354 whole entry): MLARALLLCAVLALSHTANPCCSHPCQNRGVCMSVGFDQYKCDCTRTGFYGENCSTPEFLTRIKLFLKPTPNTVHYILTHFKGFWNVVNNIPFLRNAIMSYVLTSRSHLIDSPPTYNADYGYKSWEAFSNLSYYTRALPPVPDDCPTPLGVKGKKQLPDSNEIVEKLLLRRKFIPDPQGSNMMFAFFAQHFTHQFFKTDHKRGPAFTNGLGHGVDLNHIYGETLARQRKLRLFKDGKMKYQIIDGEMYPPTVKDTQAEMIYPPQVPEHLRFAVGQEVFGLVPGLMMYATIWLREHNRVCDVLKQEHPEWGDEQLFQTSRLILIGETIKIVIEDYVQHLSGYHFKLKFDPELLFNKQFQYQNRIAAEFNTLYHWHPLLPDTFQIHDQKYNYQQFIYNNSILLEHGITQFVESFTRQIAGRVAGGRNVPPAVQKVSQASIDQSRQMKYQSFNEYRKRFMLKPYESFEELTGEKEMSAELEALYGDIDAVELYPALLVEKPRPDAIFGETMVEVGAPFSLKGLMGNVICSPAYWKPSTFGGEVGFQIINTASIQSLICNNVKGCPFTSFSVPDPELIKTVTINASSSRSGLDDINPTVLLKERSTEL
In words: Inhibition of human recombinant COX-2 using S0168-2 as substrate preincubated for 10 mins followed by substrate addition and measured after 10 mins by microplate reader analysis.

The subject of series [5] is RAW264.7. The series can be described thus: PROTAC activity at COX-2/VHL in mouse RAW264.7 cells assessed as downregulation of COX2 expression measured after 24 hrs by Western blot analysis. Conditions: dose 5-20 µM. The format is cell-based.

Protein cereblon/Prostaglandin G/H synthase 2 (Mus musculus), sequence (Q05769 whole entry, looked up): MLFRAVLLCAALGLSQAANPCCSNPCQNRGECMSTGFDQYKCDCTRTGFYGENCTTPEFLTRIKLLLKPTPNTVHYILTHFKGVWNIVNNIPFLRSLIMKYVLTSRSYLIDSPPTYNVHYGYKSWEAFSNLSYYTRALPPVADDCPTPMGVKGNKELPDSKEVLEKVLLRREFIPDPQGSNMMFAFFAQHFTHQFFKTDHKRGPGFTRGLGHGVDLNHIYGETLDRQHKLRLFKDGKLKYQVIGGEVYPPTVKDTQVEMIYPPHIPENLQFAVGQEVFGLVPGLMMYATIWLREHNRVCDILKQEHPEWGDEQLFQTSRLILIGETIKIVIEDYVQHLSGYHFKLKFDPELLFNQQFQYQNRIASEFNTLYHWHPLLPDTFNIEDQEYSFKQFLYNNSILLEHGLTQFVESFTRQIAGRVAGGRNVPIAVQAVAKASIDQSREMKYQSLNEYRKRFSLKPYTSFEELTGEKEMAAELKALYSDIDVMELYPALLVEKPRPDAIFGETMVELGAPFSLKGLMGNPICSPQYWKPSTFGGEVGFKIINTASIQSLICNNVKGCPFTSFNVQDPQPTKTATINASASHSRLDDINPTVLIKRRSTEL
Protein cereblon/Prostaglandin G/H synthase 2 (Mus musculus), sequence (Q8C7D2 whole entry, looked up): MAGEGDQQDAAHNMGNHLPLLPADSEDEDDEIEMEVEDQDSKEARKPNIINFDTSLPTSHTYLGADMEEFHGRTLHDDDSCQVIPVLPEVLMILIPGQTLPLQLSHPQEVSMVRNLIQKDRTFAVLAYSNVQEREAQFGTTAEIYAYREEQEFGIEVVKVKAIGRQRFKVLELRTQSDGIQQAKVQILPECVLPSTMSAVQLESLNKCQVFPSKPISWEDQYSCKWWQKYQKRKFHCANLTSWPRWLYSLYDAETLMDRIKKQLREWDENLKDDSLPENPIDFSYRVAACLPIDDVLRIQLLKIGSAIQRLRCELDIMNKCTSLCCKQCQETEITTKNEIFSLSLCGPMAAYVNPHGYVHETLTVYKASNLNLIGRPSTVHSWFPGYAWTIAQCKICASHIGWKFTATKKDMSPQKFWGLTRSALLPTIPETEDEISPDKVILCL

On to `O=C1CCC(N2C(=O)c3cccc(NC4CCC(NC(=O)CCCCn5cc(CCC(=O)Oc6ccccc6C(=O)O)nn5)CC4)c3C2=O)C(=O)N1` (configuration not stated), for which the Activity entry was “Non-toxic” in series [1] and “Dose-dependent-effect” in series [2]. The result in series [3] was Active.

With `Cc1ncsc1-c1ccc([C@@H](C)NC(=O)[C@@H]2C[C@@H](O)CN2C(=O)[C@@H](NC(=O)CCCCn2cc(CCC(=O)Oc3ccccc3C(=O)O)nn2)C(C)(C)C)cc1`, the IC50 in series [4] came out at 323 µM. Also, the Activity result is “Non-toxic” in series [1] and “Dose-dependent-effect” in series [5]. Besides, in series [3], the result was Active.
